{
  "source": "patent EP0203559A1",
  "about": "“Penicillin derivative containing naphthyridine” (AUSONIA FARMACEUTICI S.r.l., priority 1985, dated 1986)",
  "key": {"E. coli [1]": {"test_system": "E. coli", "assay": "Minimal inhibitory concentrations (MIC) against amoxicillin resistant bacteria (Table 1)", "type": "cell-based", "details": "Escherichia coli, 6 strains"}, "Proteus mirabilis": {"test_system": "Proteus mirabilis", "assay": "Minimal inhibitory concentrations (MIC) against amoxicillin resistant bacteria (Table 1)", "type": "cell-based", "details": "3 strains"}, "Pseudomas aeruginosa": {"test_system": "Pseudomas aeruginosa", "assay": "Minimal inhibitory concentrations (MIC) against amoxicillin resistant bacteria (Table 1)", "type": "cell-based", "details": "5 strains"}, "Serratia marcescens [2]": {"test_system": "Serratia marcescens", "assay": "Minimal inhibitory concentrations (MIC) against amoxicillin resistant bacteria (Table 1)", "type": "cell-based", "details": "2 strains"}, "Staph. albus [3]": {"test_system": "Staph. albus", "assay": "Minimal inhibitory concentrations (MIC) against amoxicillin resistant bacteria (Table 1)", "type": "cell-based", "details": "1 strain"}, "Staph. aureus CH1": {"test_system": "Staph. aureus CH1", "assay": "Minimal inhibitory concentrations (MIC) against amoxicillin resistant bacteria (Table 1)", "type": "cell-based", "details": "Staphylococcus aureus, Staph. aureus CH1, 1 strain"}, "Staph. aureus coag. pos.": {"test_system": "Staph. aureus coag. pos.", "assay": "Minimal inhibitory concentrations (MIC) against amoxicillin resistant bacteria (Table 1)", "type": "cell-based", "details": "Staphylococcus aureus, 4 strains"}, "E. coli [4]": {"test_system": "E. coli", "assay": "In vitro antibacterial activity (MIC), compound I versus 1:1 combination with amoxicillin (Table 3)", "type": "cell-based", "details": "Escherichia coli, 2 strains, average value, compound I alone"}, "Enterob. cloacee": {"test_system": "Enterob. cloacee", "assay": "In vitro antibacterial activity (MIC), compound I versus 1:1 combination with amoxicillin (Table 3)", "type": "cell-based", "details": "2 strains, average value, compound I alone"}, "Citrob. freundii": {"test_system": "Citrob. freundii", "assay": "In vitro antibacterial activity (MIC), compound I versus 1:1 combination with amoxicillin (Table 3)", "type": "cell-based", "details": "Citrobacter freundii, 2 strains, average value, compound I alone"}, "Pseudomonas aeruginosa": {"test_system": "Pseudomonas aeruginosa", "assay": "In vitro antibacterial activity (MIC), compound I versus 1:1 combination with amoxicillin (Table 3)", "type": "cell-based", "details": "5 strains, average value, compound I alone"}, "Klebsiella pneumoniae": {"test_system": "Klebsiella pneumoniae", "assay": "In vitro antibacterial activity (MIC), compound I versus 1:1 combination with amoxicillin (Table 3)", "type": "cell-based", "details": "4 strains, average value, compound I alone"}, "Serratia marcescens [5]": {"test_system": "Serratia marcescens", "assay": "In vitro antibacterial activity (MIC), compound I versus 1:1 combination with amoxicillin (Table 3)", "type": "cell-based", "details": "2 strains, average value, compound I alone"}, "Salmonella enteriditis": {"test_system": "Salmonella enteriditis", "assay": "In vitro antibacterial activity (MIC), compound I versus 1:1 combination with amoxicillin (Table 3)", "type": "cell-based", "details": "2 strains, average value, compound I alone"}, "Staph. albus [6]": {"test_system": "Staph. albus", "assay": "In vitro antibacterial activity (MIC), compound I versus 1:1 combination with amoxicillin (Table 3)", "type": "cell-based", "details": "1 strain, compound I alone"}, "Staph. aureus": {"test_system": "Staph. aureus", "assay": "In vitro antibacterial activity (MIC), compound I versus 1:1 combination with amoxicillin (Table 3)", "type": "cell-based", "details": "Staphylococcus aureus, 8 strains, average value, compound I alone"}, "Proteus rettgeri": {"test_system": "Proteus rettgeri", "assay": "In vitro antibacterial activity (MIC), compound I versus 1:1 combination with amoxicillin (Table 3)", "type": "cell-based", "details": "Providencia rettgeri, 1 strain, compound I alone"}, "[7]": {"test_system": "ß-Lactamase isolated from: B. cereus", "assay": "Inhibition of hydrolysis rates of ß-lactamases", "type": "biochemical", "procedure": "(§1) In order to further evaluate its therapeutic potentiality, compound I was tested for any inhibitory activity against B-lactamases."}, "[8]": {"test_system": "ß-Lactamase isolated from: E. coli", "assay": "Inhibition of hydrolysis rates of ß-lactamases", "type": "biochemical", "procedure": "as §1"}, "[9]": {"test_system": "CSH28F'lacproxZM46 (plasmid F'lacpro, Inc FI)", "assay": "Inhibition of plasmid transfer by conjugation", "type": "cell-based, E. coli", "details": "Escherichia coli", "text": "(§2) Another advantageous feature of compound I resides in its ability to inhibit the transfer of bacterial plasmids by conjugation, said ability being shared by other compounds of quinoline structure and being important since it interferes with transmission of bacterial resistance.\n(§3) Phenotype symbols according Novick et al. (1976) were used.\n(§4) The following antibiotics were used: streptomycin (Sm), tetracycline (Tc), ampicillin (Ap), kanamycin (Km) and rifampicin (Rif). Compound I in 1 and 10 mcg/ml concentrations was used in the transfer mixtures. • - Microorganisms were grown in Nutrient Broth (B.B.L.), NB, or in Nutrient Agar or Mc Conkey Agar (B.B.L.). Appropriate antibiotic concentrations were added to the selection plates. Sm 10, Tc 10, Ap 30, Km 30, Rif 100 and Nal 50. • - Bacterial strains were incubated till 2.5 x 10^8 cells/ml of nutrient broth exponential phase, and crossed in a donor/recipient 1:5 ratio in 2 x broth during 18 hours at 37°C. On the other hand, in the interrupted crosses, the bacteria were stirred by means of the Vortex apparatus for 1 minute after 1 h cross. • - About one hundred colonies, which could growth on the selection plates (containing the various antibiotics) were checked for the resistance spectrum by \"replica plating\". • - The transfer frequence was expressed as the number of resistent recipients in comparison with the number of donors in the mating mixtures, at the plating time. The inhibition rate of plasmid transfer was evaluated in tests in which, in the mating mixtures, compound I was present in 1 or 10 mcg/ml concentrations.\n(§5) The activity of compound I was tested in different cross systems between E. coli x E. coli."}, "[10]": {"test_system": "CSH50(RP4)xZM46 (plasmid RP4, Inc P)", "assay": "Inhibition of plasmid transfer by conjugation", "type": "cell-based, E. coli", "details": "Escherichia coli", "text": "as §2, §3, §4, §5"}, "[11]": {"test_system": "UR10(R446)xZM46 (plasmid R446, Inc M)", "assay": "Inhibition of plasmid transfer by conjugation", "type": "cell-based, E. coli", "details": "Escherichia coli", "text": "as §2, §3, §4, §5"}, "[12]": {"test_system": "B-lactamases from both Gram-positive and Gram-negative bacteria", "assay": "Inhibitory activity against B-lactamases", "type": "biochemical", "details": "dosage of 100 δ", "procedure": "as §1"}, "B-lactamases": {"test_system": "B-lactamases", "assay": "Stability to B-lactamases", "type": "in vitro ADME"}, "[13]": {"test_system": "tryptic enzymes (trypsin, pepsin, etc.)", "assay": "Stability to tryptic enzymes", "type": "in vitro ADME"}, "[14]": {"test_system": "Gram-positive and Gram-negative strains resistant to amoxicillin alone", "assay": "MIC of amoxicillin alone against the resistant strains of Table 3", "type": "cell-based"}},
  "data": [
    {"smiles": "CCn1cc(C(=O)NC(C(=O)NC2C(=O)N3C2SC(C)(C)C3C(=O)O)c2ccc(O)cc2)c(=O)c2ccc(C)nc21", "note": "[Compound I, D-(-)-α-[(1-ethyl-1,4-dihydro-7-methyl-4-oxo-1,8-naphthyridine-3-carboxyamido)-α-(p-hydroxyphenyl)-acetamido]penicil lanic acid]", "values": [
      {"measurement": "MIC", "setting": "E. coli [1]", "result": 25, "unit": "µg/mL"},
      {"measurement": "MIC", "setting": "Proteus mirabilis", "result": 25, "unit": "µg/mL"},
      {"measurement": "MIC", "setting": "Pseudomas aeruginosa", "result": 50, "unit": "µg/mL"},
      {"measurement": "MIC", "setting": "Serratia marcescens [2]", "result": 50, "unit": "µg/mL"},
      {"measurement": "MIC", "setting": "Staph. albus [3]", "result": 6.25, "unit": "µg/mL"},
      {"measurement": "MIC", "setting": "Staph. aureus CH1", "result": 1.56, "unit": "µg/mL"},
      {"measurement": "MIC", "setting": "Staph. aureus coag. pos.", "result": 3.12, "unit": "µg/mL"},
      {"measurement": "MIC", "setting": "E. coli [4]", "result": 75, "unit": "µg/mL"},
      {"measurement": "MIC", "setting": "Enterob. cloacee", "result": 100, "unit": "µg/mL"},
      {"measurement": "MIC", "setting": "Citrob. freundii", "result": 100, "unit": "µg/mL"},
      {"measurement": "MIC", "setting": "Pseudomonas aeruginosa", "result": 50, "unit": "µg/mL"},
      {"measurement": "MIC", "setting": "Klebsiella pneumoniae", "result": 87.5, "unit": "µg/mL"},
      {"measurement": "MIC", "setting": "Serratia marcescens [5]", "result": 50, "unit": "µg/mL"},
      {"measurement": "MIC", "setting": "Salmonella enteriditis", "result": 100, "unit": "µg/mL"},
      {"measurement": "MIC", "setting": "Staph. albus [6]", "result": 6.25, "unit": "µg/mL"},
      {"measurement": "MIC", "setting": "Staph. aureus", "result": 10.3, "unit": "µg/mL"},
      {"measurement": "MIC", "setting": "Proteus rettgeri", "result": 50, "unit": "µg/mL"},
      {"measurement": "% inhibition", "setting": "[7]; Conc. 50 γ/ml", "result": 50, "unit": "%"},
      {"measurement": "% inhibition", "setting": "[7]; Conc. 75 γ/ml", "result": 90, "unit": "%"},
      {"measurement": "% inhibition", "setting": "[7]; Conc. 100 γ/ml", "result": 100, "unit": "%"},
      {"measurement": "% inhibition", "setting": "[8]; Conc. 50 γ/ml", "result": 50, "unit": "%"},
      {"measurement": "% inhibition", "setting": "[8]; Conc. 75 γ/ml", "result": 90, "unit": "%"},
      {"measurement": "% inhibition", "setting": "[8]; Conc. 100 γ/ml", "result": 100, "unit": "%"},
      {"measurement": "inhibition at 1 µg/mL", "setting": "[9]", "result": 40.2, "unit": "%"},
      {"measurement": "inhibition at 10 µg/mL", "setting": "[9]", "result": 69.7, "unit": "%"},
      {"measurement": "inhibition at 1 µg/mL", "setting": "[10]", "result": 36.4, "unit": "%"},
      {"measurement": "inhibition at 10 µg/mL", "setting": "[10]", "result": 66.2, "unit": "%"},
      {"measurement": "inhibition at 1 µg/mL", "setting": "[11]", "result": 19.1, "unit": "%"},
      {"measurement": "inhibition at 10 µg/mL", "setting": "[11]", "result": 74.5, "unit": "%"},
      {"measurement": "inhibition of enzymatic activity of B-lactamases", "setting": "[12]", "result": "completely inhibiting any enzymatic activity"},
      {"measurement": "stability to B-lactamases", "setting": "B-lactamases", "result": "stable to B-lactamases"},
      {"measurement": "stability to tryptic enzymes (trypsin, pepsin, etc.)", "setting": "[13]", "result": "stable to tryptic enzymes"}
    ]},
    {"smiles": "CC1(C)S[C@@H]2[C@H](NC(=O)[C@H](N)c3ccc(O)cc3)C(=O)N2[C@H]1C(=O)O", "note": "[amoxicillin]", "values": [
      {"measurement": "MIC", "setting": "[14]", "result": "≥ 800", "unit": "µg/mL"}
    ]}
  ]
}
